Results published in the NIST ThermoML archive (doi:10.1016/j.fluid.2015.01.002).
± gives the expanded uncertainty stated by the source.

What was measured:
[1] = 298.15 K; 101.33 kPa; Liquid; Vibrating tube method
[2] = refractive index (Na D-line) (dimensionless); conditions: 298.15 K; 101.33 kPa; Liquid; Standard Abbe refractometry
[3] = xn = mol fraction of the nth substance listed; conditions: 298.15 K, 101 kPa, Liquid, Vibrating tube method
[4] = refractive index (Na D-line) (dimensionless); xn = mol fraction of the nth substance listed; conditions: 298.15 K, 101 kPa, Liquid, Standard Abbe refractometry

Cc1ccc(C)cc1 [1,4-dimethylbenzene]
mass density [1]: 856.78 ± 0.14 kg/m3
refractive index [2]: 1.49281 ± 0.001

Cc1ccc(C)cc1 [1,4-dimethylbenzene] + CC#N
mass density ([3]; x1 = 0.05): 785.5 ± 0.15 kg/m3
mass density ([3]; x1 = 0.1): 793.4 ± 0.15 kg/m3
mass density ([3]; x1 = 0.2): 806.77 ± 0.15 kg/m3
mass density ([3]; x1 = 0.3): 817.69 ± 0.15 kg/m3
mass density ([3]; x1 = 0.4): 826.78 ± 0.15 kg/m3
mass density ([3]; x1 = 0.5): 834.35 ± 0.15 kg/m3
mass density ([3]; x1 = 0.6): 840.73 ± 0.14 kg/m3
mass density ([3]; x1 = 0.7): 846.09 ± 0.14 kg/m3
mass density ([3]; x1 = 0.8001): 850.43 ± 0.14 kg/m3
mass density ([3]; x1 = 0.9001): 854.1 ± 0.14 kg/m3
mass density ([3]; x1 = 0.9503): 855.52 ± 0.14 kg/m3
refractive index ([4]; x1 = 0.05): 1.3575 ± 0.0003
refractive index ([4]; x1 = 0.1): 1.3717 ± 0.0003
refractive index ([4]; x1 = 0.2): 1.3975 ± 0.0003
refractive index ([4]; x1 = 0.3): 1.4181 ± 0.0004
refractive index ([4]; x1 = 0.4): 1.4353 ± 0.0004
refractive index ([4]; x1 = 0.5): 1.4498 ± 0.0004
refractive index ([4]; x1 = 0.6): 1.4642 ± 0.0004
refractive index ([4]; x1 = 0.7): 1.4757 ± 0.0004
refractive index ([4]; x1 = 0.8001): 1.4835 ± 0.0004
refractive index ([4]; x1 = 0.9001): 1.4889 ± 0.0004
refractive index ([4]; x1 = 0.9503): 1.4913 ± 0.0004

COCCO [2-methoxyethan-1-ol]
mass density [1]: 959.73 ± 0.13 kg/m3
refractive index [2]: 1.39981 ± 0.00033

COCCO [2-methoxyethan-1-ol] + Cc1ccc(C)cc1
mass density ([3]; x2 = 0.0499): 952.02 ± 0.13 kg/m3
mass density ([3]; x2 = 0.0999): 944.39 ± 0.13 kg/m3
mass density ([3]; x2 = 0.1999): 930.07 ± 0.14 kg/m3
mass density ([3]; x2 = 0.3): 917.28 ± 0.14 kg/m3
mass density ([3]; x2 = 0.3999): 905.75 ± 0.14 kg/m3
mass density ([3]; x2 = 0.5001): 895.38 ± 0.14 kg/m3
mass density ([3]; x2 = 0.6): 885.92 ± 0.14 kg/m3
mass density ([3]; x2 = 0.6999): 877.19 ± 0.14 kg/m3
mass density ([3]; x2 = 0.7999): 869.23 ± 0.14 kg/m3
mass density ([3]; x2 = 0.8999): 862.2 ± 0.14 kg/m3
mass density ([3]; x2 = 0.9499): 859.28 ± 0.14 kg/m3
refractive index ([4]; x2 = 0.0499): 1.4069 ± 0.0004
refractive index ([4]; x2 = 0.0999): 1.4136 ± 0.0004
refractive index ([4]; x2 = 0.1999): 1.4253 ± 0.0004
refractive index ([4]; x2 = 0.3): 1.4367 ± 0.0004
refractive index ([4]; x2 = 0.3999): 1.4462 ± 0.0004
refractive index ([4]; x2 = 0.5001): 1.4557 ± 0.0004
refractive index ([4]; x2 = 0.6): 1.4641 ± 0.0004
refractive index ([4]; x2 = 0.6999): 1.4717 ± 0.0004
refractive index ([4]; x2 = 0.7999): 1.4793 ± 0.0004
refractive index ([4]; x2 = 0.8999): 1.4862 ± 0.0004
refractive index ([4]; x2 = 0.9499): 1.4895 ± 0.0004

COCCO [2-methoxyethan-1-ol] + Cc1ccccc1
mass density ([3]; x2 = 0.05): 953.61 ± 0.13 kg/m3
mass density ([3]; x2 = 0.0998): 947.42 ± 0.13 kg/m3
mass density ([3]; x2 = 0.1999): 935.21 ± 0.14 kg/m3
mass density ([3]; x2 = 0.3001): 923.65 ± 0.14 kg/m3
mass density ([3]; x2 = 0.4): 912.84 ± 0.14 kg/m3
mass density ([3]; x2 = 0.4999): 902.65 ± 0.15 kg/m3
mass density ([3]; x2 = 0.6): 893.14 ± 0.14 kg/m3
mass density ([3]; x2 = 0.7001): 884.22 ± 0.14 kg/m3
mass density ([3]; x2 = 0.8): 875.94 ± 0.14 kg/m3
mass density ([3]; x2 = 0.9): 868.48 ± 0.14 kg/m3
mass density ([3]; x2 = 0.9498): 865.12 ± 0.14 kg/m3
refractive index ([4]; x2 = 0.05): 1.4048 ± 0.0004
refractive index ([4]; x2 = 0.0998): 1.4113 ± 0.0004
refractive index ([4]; x2 = 0.1999): 1.4233 ± 0.0004
refractive index ([4]; x2 = 0.3001): 1.434 ± 0.0004
refractive index ([4]; x2 = 0.4): 1.4437 ± 0.0004
refractive index ([4]; x2 = 0.4999): 1.453 ± 0.0004
refractive index ([4]; x2 = 0.6): 1.4616 ± 0.0004
refractive index ([4]; x2 = 0.7001): 1.4701 ± 0.0004
refractive index ([4]; x2 = 0.8): 1.4782 ± 0.0004
refractive index ([4]; x2 = 0.9): 1.486 ± 0.0004
refractive index ([4]; x2 = 0.9498): 1.4899 ± 0.0004

COCCO [2-methoxyethan-1-ol] + c1ccccc1
mass density ([3]; x2 = 0.05): 955.11 ± 0.13 kg/m3
mass density ([3]; x2 = 0.0998): 950.35 ± 0.13 kg/m3
mass density ([3]; x2 = 0.2001): 940.54 ± 0.14 kg/m3
mass density ([3]; x2 = 0.2998): 930.95 ± 0.14 kg/m3
mass density ([3]; x2 = 0.4): 921.55 ± 0.14 kg/m3
mass density ([3]; x2 = 0.4999): 912.55 ± 0.14 kg/m3
mass density ([3]; x2 = 0.5999): 903.8 ± 0.14 kg/m3
mass density ([3]; x2 = 0.7): 895.3 ± 0.14 kg/m3
mass density ([3]; x2 = 0.8): 887.18 ± 0.14 kg/m3
mass density ([3]; x2 = 0.8998): 879.76 ± 0.14 kg/m3
mass density ([3]; x2 = 0.95): 876.36 ± 0.14 kg/m3
refractive index ([4]; x2 = 0.05): 1.4054 ± 0.0004
refractive index ([4]; x2 = 0.0998): 1.4105 ± 0.0004
refractive index ([4]; x2 = 0.2001): 1.4193 ± 0.0004
refractive index ([4]; x2 = 0.2998): 1.4286 ± 0.0004
refractive index ([4]; x2 = 0.4): 1.4385 ± 0.0004
refractive index ([4]; x2 = 0.4999): 1.4486 ± 0.0004
refractive index ([4]; x2 = 0.5999): 1.4586 ± 0.0004
refractive index ([4]; x2 = 0.7): 1.4679 ± 0.0004
refractive index ([4]; x2 = 0.8): 1.477 ± 0.0004
refractive index ([4]; x2 = 0.8998): 1.4864 ± 0.0004
refractive index ([4]; x2 = 0.95): 1.4916 ± 0.0004

CC#N [acetonitrile]
mass density [1]: 776.64 ± 0.16 kg/m3
refractive index [2]: 1.34143 ± 0.00032

CC#N [acetonitrile] + Cc1ccccc1
mass density ([3]; x2 = 0.0499): 784.94 ± 0.15 kg/m3
mass density ([3]; x2 = 0.1): 792.57 ± 0.15 kg/m3
mass density ([3]; x2 = 0.2): 806.07 ± 0.15 kg/m3
mass density ([3]; x2 = 0.3): 817.61 ± 0.15 kg/m3
mass density ([3]; x2 = 0.4): 827.52 ± 0.15 kg/m3
mass density ([3]; x2 = 0.4999): 835.99 ± 0.15 kg/m3
mass density ([3]; x2 = 0.6): 843.26 ± 0.15 kg/m3
mass density ([3]; x2 = 0.6999): 849.43 ± 0.14 kg/m3
mass density ([3]; x2 = 0.8001): 854.74 ± 0.14 kg/m3
mass density ([3]; x2 = 0.9): 858.99 ± 0.14 kg/m3
mass density ([3]; x2 = 0.9498): 860.78 ± 0.14 kg/m3
refractive index ([4]; x2 = 0.0499): 1.3557 ± 0.0003
refractive index ([4]; x2 = 0.1): 1.3686 ± 0.0003
refractive index ([4]; x2 = 0.2): 1.3917 ± 0.0003
refractive index ([4]; x2 = 0.3): 1.412 ± 0.0004
refractive index ([4]; x2 = 0.4): 1.4308 ± 0.0004
refractive index ([4]; x2 = 0.4999): 1.4457 ± 0.0004
refractive index ([4]; x2 = 0.6): 1.458 ± 0.0004
refractive index ([4]; x2 = 0.6999): 1.4683 ± 0.0004
refractive index ([4]; x2 = 0.8001): 1.4785 ± 0.0004
refractive index ([4]; x2 = 0.9): 1.487 ± 0.0004
refractive index ([4]; x2 = 0.9498): 1.4907 ± 0.0004

CC#N [acetonitrile] + c1ccccc1
mass density ([3]; x2 = 0.05): 784.35 ± 0.15 kg/m3
mass density ([3]; x2 = 0.1): 791.68 ± 0.15 kg/m3
mass density ([3]; x2 = 0.2): 805.24 ± 0.15 kg/m3
mass density ([3]; x2 = 0.2998): 817.45 ± 0.15 kg/m3
mass density ([3]; x2 = 0.4001): 828.54 ± 0.15 kg/m3
mass density ([3]; x2 = 0.4999): 838.46 ± 0.15 kg/m3
mass density ([3]; x2 = 0.6002): 847.41 ± 0.15 kg/m3
mass density ([3]; x2 = 0.7004): 855.36 ± 0.14 kg/m3
mass density ([3]; x2 = 0.7997): 862.34 ± 0.14 kg/m3
mass density ([3]; x2 = 0.9002): 868.48 ± 0.14 kg/m3
mass density ([3]; x2 = 0.9506): 871.14 ± 0.14 kg/m3
refractive index ([4]; x2 = 0.05): 1.3523 ± 0.0003
refractive index ([4]; x2 = 0.1): 1.3638 ± 0.0003
refractive index ([4]; x2 = 0.2): 1.3823 ± 0.0003
refractive index ([4]; x2 = 0.2998): 1.402 ± 0.0004
refractive index ([4]; x2 = 0.4001): 1.4217 ± 0.0004
refractive index ([4]; x2 = 0.4999): 1.4378 ± 0.0004
refractive index ([4]; x2 = 0.6002): 1.4531 ± 0.0004
refractive index ([4]; x2 = 0.7004): 1.466 ± 0.0004
refractive index ([4]; x2 = 0.7997): 1.4789 ± 0.0004
refractive index ([4]; x2 = 0.9002): 1.4892 ± 0.0004
refractive index ([4]; x2 = 0.9506): 1.4929 ± 0.0004

c1ccccc1 [benzene]
mass density [1]: 873.73 ± 0.14 kg/m3
refractive index [2]: 1.49749 ± 0.001

CCCCCCCCCCCCCCCC [hexadecane]
mass density [1]: 770.3 ± 0.16 kg/m3
refractive index [2]: 1.43225 ± 0.001

Cc1ccccc1 [toluene]
mass density [1]: 862.34 ± 0.14 kg/m3
refractive index [2]: 1.49367 ± 0.001
